Earlier results in patent publication US11464838B2, “Optimized cancer stem cell vaccines” (COLORADO STATE UNIVERSITY RESEARCH FOUNDATION, priority 2015, dated 2022).

Details: in vivo

| Bioavailability [%] | Biological Half-Life [hours] | Structure (SMILES) |
| --- | --- | --- |
| 13 | 5 | CCCCc1ncc(/C=C(\Cc2cccs2)C(=O)O)n1Cc1ccc(C(=O)O)cc1 [Eprosartan] |
| 70 |  | CCCCC1=NC2(CCCC2)C(=O)N1Cc1ccc(-c2ccccc2-c2nnn[nH]2)cc1 [Irbesartan] |
| 60 | 11 | CCOc1nc2cccc(C(=O)O)c2n1Cc1ccc(-c2ccccc2-c2noc(=O)[nH]2)cc1 [Azilsartan] |
|  | 2 | CCCCc1nc(Cl)c(CO)n1Cc1ccc(-c2ccccc2-c2nn[nH]n2)cc1 [Losartan] |
